Experimental data: patent US4845095A, “4-phenylpiperidine compounds and their use” (A/S Ferrosan, priority 1987, dated 1989)

Tested on: acetic acid induced writhing syndrome
Assay: acetic acid induced writhing syndrome in mice
Type: in vivo, mice (NMRI)
Details: for ED50: Mus musculus, sc, dose giving 50 per cent protection against writhings, s.c. 30 minutes before acetic acid 0.5 per cent i.p., writhings counted 5-15 minutes after; for inhibition (ED50 table): s.c. 30 minutes before acetic acid
Description: The pharmaceutical properties of the compounds of the invention can be illustrated by determining their capability to antagonize the acetic acid induced writhing syndrome in mice.
In mice i.p. injection of acetic acid induces a writhing syndrome which is antagonized by analgesics (Siegmund et al., Proc. Soc. exp. Biol. 95, 729-731 (1957); Eckhardt et al., Proc. Soc. exp. Biol. 98, 186-188 (1958).
Test procedure: Acetic acid 0.5 per cent is injected i.p. (0.15 ml/10g body weight) to 6 mice (NMRI, either sex weighing 20-25 g) pretreated with physiological saline (controls) and to 6 mice pretreated with test substance. In the controls acetic acid induces a syndrome characterized by contraction of abdomen, turning of trunk and extension of hind limbs. Saline and test substances are administered s.c. 30 minutes before acetic acid. The number of writhings is counted 5-15 minutes after injection of acetic acid. The activity is expressed as per cent protection=
(Control drug)/Control×100
The effect of active substances is evaluated by a dose response curve, log dose on the abscissa, and per cent protection on the ordinate. The potency is expressed as the dose (ED50) in mg/kg giving 50 per cent protection against writhings. Test results obtained by testing some compounds of the invention will appear from the following table.

Cc1noc(C2(c3ccccc3)CCN(C)CC2)n1.Cl [Compound 1, 1-Methyl-4-(3-methyl-1,2,4-oxadiazol-5-yl)-4-phenylpiperidine hydrochloride]
ED50: 5.7 mg/kg

CN1CCC(c2ccccc2)(c2nc(-c3ccccc3)no2)CC1 [Compound 3, 1-methyl-4-(3-phenyl-1,2,4-oxadiazol-5-yl)-4-phenylpiperidine]
inhibition (ED50 table) (at 3 (table head mg/kg)): 41%

COCc1noc(C2(c3ccccc3)CCN(C)CC2)n1.Cl [Compound 4, 1-methyl-4-(3-methoxymethyl-1,2,4-oxadiazol-5-yl)-4-phenylpiperidine hydrochloride]
ED50: 3 mg/kg

CN1CCC(c2ccccc2)(c2nc(C3CC3)no2)CC1.Cl [Compound 2, 1-methyl-4-(3-cyclopropyl-1,2,4-oxadiazol-5-yl)-4-phenylpiperidine hydrochloride]
ED50: 7.6 mg/kg

CCOC(=O)C1(c2ccccc2)CCN(C)CC1 [Pethidine, reference compound]
ED50: 9.25 mg/kg

c1ccc(C2(c3nc(C4CC4)no3)CCNCC2)cc1 [Compound 13, 4-(3-cyclopropyl-1,2,4-oxadiazol-5-yl)-4-phenylpiperidine]
ED50: 2.9 mg/kg

CON=CC1(c2ccccc2)CCN(C)CC1.O=C(O)C(=O)O [Compound 10, 4-Methoxyiminomethyl-1-methyl-4-phenyl-piperidine oxalate]
ED50: 3.2 mg/kg

O=C(O)C(=O)O.c1ccc(OCCCCN2CCC(c3ccccc3)(c3nc(C4CC4)no3)CC2)cc1 [Compound 16, 4-(3-cyclopropyl-1,2,4-oxadiazol-5-yl)-1-(4-phenoxybutyl)-4-phenylpiperidine oxalate]
inhibition (ED50 table) (at 10 (table head mg/kg)): 34%
